Values of other authors in US9211341B2, “Method of manufacturing a pharmaceutical composition having chelating type complex micelles” (Original BioMedicals Co., Ltd, priority 2011, dated 2015).

In the case of `NCCCNCCSP(=O)(O)O` [amifostine], the “blood half-life (βt1/2)” value (after injection) is given as 8.8 min, the “time at which the cytoprotective effect appears” value (after injection) is given as 5 to 10 min and the “time to reach steady state after distribution to tissues and dephosphorylation” value (after injection) is given as “about 10 minutes”. For the same molecule, the “concentration in normal cells (kidney, lung, liver, skin, bone marrow, intestine, spleen) relative to cancer cells” value (following injection) was 10 times and the “plasma clearance, fraction cleared” value (within 6 minutes) was “approximately 90%”.
